Measurements published in US6387431B1, “Dicarboalkoxy dioxolanes as flavoring agent releasing compounds” (Givaudan SA, priority 2000, dated 2002).

Columns and labels:
[1] = aqueous solutions and acidic aqueous alcoholic and non-alcoholic beverages; cited from earlier work
[2] = Stability (decomposition) in a still lemon beverage, hexane extraction and GC; type: physicochemical; conditions: for half life t½: 100 ppm, over 5 days, first order kinetic assumed
Method: The stability of compound 1 of Example 1 was tested in a still lemon beverage prepared by 1+5 dilution of lemon/lime-lemon beverage concentrate (210 g) with water ([…]). Formula of the lemon/lime-lemon beverage concentrate used: [table] Three 100 ml solutions containing each 100 ppm of the compound 1 were prepared and the decomposition of 1 was determined over a period of 5 days by extraction of 5 ml test solutions samples with hexane, spiked with 100 ppm of ethyl myristate. The extracts were analyzed by GC (Hewlett Packard 6890; column: DB-5, 30 m, 0.32 mm i.d.) and for each data point a mean value based on three measurements was calculated.

half life t½ [2] | SMILES | hydrolysis [1] | further results
 | CC(C)=CCC/C(C)=C/C1OCC(C)O1 (centres unmarked) [citral propylene glycol acetal] | rapidly hydrolized | 
264 h | CCCOC(=O)[C@@H]1OC(C=C(C)CCC=C(C)C)O[C@H]1C(=O)OCCC (mixture of isomers) [compound 5, (E/Z)-(4R,5R)-2-(2,6-Dimethyl-hepta-1,5-dienyl)-[1,3]dioxolane-4,5-dicarboxylic acid dipropylester] |  | 
 | COC(C=C(C)CCC=C(C)C)OC [citral dimethyl acetal] | rapidly hydrolized | 
96 h | CC(C)=CCCC(C)=CC1O[C@@H](C(=O)OC(C)C)[C@H](C(=O)OC(C)C)O1 (mixture of isomers) [compound 1, (E/Z)-(4R,5R)-2-(2,6-Dimethyl-hepta-1,5-dienyl)-[1,3]dioxolane-4,5-dicarboxylic acid diisopropylester] |  | 
 | CCOC(=O)[C@@H]1OC(C=C(C)CCC=C(C)C)O[C@H]1C(=O)OCC (mixture of isomers) [compound 3, (E/Z)-(4R,5R)-2-(2,6-Dimethyl-hepta-1,5-dienyl)-[1,3]dioxolane-4,5-dicarboxylic acid diethylester] |  | half life ([2]; determined as in Example 6): 21 h
